# In PMC11491004, “CHF6523 data suggest that the phosphoinositide 3-kinase delta isoform is not a suitable target for the management of COPD” (Respiratory Research, 2024):
# What was measured:
# proteins in sputum [1] = experiment: Olink proteomics in sputum (Target 96 Inflammation and Target 48 Cytokine panels); type: in vivo, human
# Method: For the proteomics evaluation, sputum samples were run on the Target 48 Cytokine panel, and the Target 96 Inflammation panel (Olink Protemics, Uppsala, Sweden). In the Target 48 Cytokine panel, 45 cytokines were quantified in terms of their absolute concentration. For the Target 96 Inflammation panel, 92 proteins involved in inflammation processes were evaluated, with the results expressed as Normalized Protein eXpression (NPX; the manufacturer’s arbitrary unit, in Log2 scale). […] In the statistical model, using sputum Target 96 and 48 data, change from pre-dose to post-dose expression were used as dependent variable, and patient, period, treatment and pre-dose expression as independent variable.
# [2] = test system: eosinophilic/type-2 inflammation; details: series of preclinical studies in rat or mouse models of airway inflammation; cited from earlier work
# proteins in sputum [3] = experiment: Tandem mass tag mass spectrometry proteomics in sputum; type: in vivo, human; details: FDR < 0.05, mixed effect modelling
# Method: Sputum samples were weighed and solubilised with sodium dodecyl sulphate and dithiothreitol, and were incubated for 10 min at 95°C. First, quantification was performed by the Bradford Assay, with 50 μg of each sample digested with Trypsin following the S-trap micro protocol; 25 μg of each sample was dried, and reconstituted with TMT10plex (Thermo Scientific) following the manufacturer’s instructions. The 98 samples were divided into eleven TMT10plexes groups; 10 μg of each sample were combined, taking into account the peptide quantification, and after combining samples were desalted.
# Samples were analysed with a Thermo Scientific Dionex Ultimate 3000 nano RSLC coupled to a Orbitrap Fusion Lumos mass spectrometer (Thermo Scientific) fitted with nanoESI source. Peptides were separated on a EasySpray (75 µm x 500 mm, 2 μm, 100Å) (Thermo Scientific) heated to 40°C at 300 nL/min. The mass spectrometer was operated in data-dependent acquisition (DDA) mode. […] For the MS3 analyses for TMT quantification, multiple fragment ions from the previous MS2 scan (SPS ions) were co- selected and fragmented by HCD.
# Database searches were performed with Proteome Discoverer v2.4 software (Thermo Scientific) using Sequest HT search engine and UniProt Homo Sapiens (2023) and contaminants. […] TMT reporter ions intensities were used for protein quantification. […]
# [4] = Spirometry (pre-dose FEV1 and FVC); type: in vivo, human
# Method: All assessment timings were based on the morning dose. Pre-dose on Days 1 and 28 of each treatment period, blood samples were taken for pharmacokinetic analyses, followed by forced oscillation (including slow vital capacity manoeuvres for inspiratory capacity [IC] and vital capacity [VC]), spirometry (forced expiratory volume in 1 s [FEV1] and forced vital capacity [FVC]), and the COPD Assessment Test (CAT). Blood samples were also taken up to 12 h post-dose on Days 1 and 28 for pharmacokinetic analyses, with blood samples for biomarker assessment pre-dose on Day 1 and 2 h post-dose on Day 28, and spirometry pre-dose on Days 20 and 24. Sputum was induced prior to each treatment period for baseline determination of biomarkers, and post-dose on Day 20 for collection of phosphatidylinositol (3,4,5)-trisphosphate (PIP3), and on Days 24 and 28 for collection of biomarkers.
# Fold-change from baseline in cell counts, target biomarkers in sputum and blood, and PIP3 were log-transformed and analysed using an analysis of covariance (ANCOVA) model, with treatment, patient, and period as fixed effects, and baseline value as covariate. Changes from baseline in spirometry, forced oscillation and CAT endpoints were analysed using a similar ANCOVA model, but without log transformation. Rescue medication data were analysed using an analysis of variance model, including treatment, period and patient as fixed effects. Other data, including the proportion of days on which patients coughed and the cough VAS results, are presented descriptively only. Further details, including the transcriptomics, mass-spectrometry and Olink proteomics, bioinformatics and multi-omic data integration are in the supplement.
# in-vivo guinea pig model = experiment: In-vivo guinea pig cough model
# [5] = in vivo
# Method: Safety and tolerability were evaluated throughout the study in terms of the occurrence of adverse events, blood chemistry, haematology and urinalysis, vital signs, and 12-lead electrocardiograms. […] Throughout the study, patients were permitted to use salbutamol as rescue medication, but not within 6 h prior to any spirometry assessment – any rescue medication intake was also captured in the daily diary.
# The safety set, used in the analysis of all safety variables, was all randomised patients who received at least one dose of study drug. […] Given the cross-over design, the inclusion of patients in the analysis sets was defined on a per-period basis.
smiles,measurement,setting,value
C[C@@H](c1oc(=O)c2ccccc2c1-c1cccc(CN2CCN(C)CC2)c1)n1nc(-c2cncc(O)c2)c2c(N)ncnc21 [CHF6523],Fold change in the Olink panels: IL-1B,proteins in sputum [1],0.771
same,Fold change in the Olink panels: IL-6,proteins in sputum [1],1.516
same,Fold change in the Olink panels: IL-8,proteins in sputum [1],1.151
same,Fold change in the Olink panels: MCP-1,proteins in sputum [1],0.732
same,Fold change in the Olink panels: TNF,proteins in sputum [1],0.821
same,"Proteins significantly modulated by treatment, of the 74 evaluated",proteins in sputum [1]; FDR < 0.05,none were significantly modulated by treatment
same,Inhibition of eosinophilic/type-2 inflammation,[2],potent inhibition of eosinophilic/type-2 inflammation comparable to that of nemiralisib
same,"Proteins significantly modulated by treatment, of the 413 evaluated",proteins in sputum [3],only BPI fold-containing family B member 1 (BPIFB1) was significantly modulated by treatment
same,Change from baseline in pre-dose FEV1: CHF6523–placebo difference (95% CI),[4]; Day 20,"−79 (−149, −9) mL"
same,Change from baseline in pre-dose FVC: CHF6523–placebo difference (95% CI),[4]; Day 20,"−38 (−191, 116) mL"
same,Change from baseline in pre-dose FEV1: CHF6523–placebo difference (95% CI),[4]; Day 24,"−79 (−141, −17) mL"
same,Change from baseline in pre-dose FVC: CHF6523–placebo difference (95% CI),[4]; Day 24,"−25 (−170, 120) mL"
same,Change from baseline in pre-dose FEV1: CHF6523–placebo difference (95% CI),[4]; Day 28,"−146 (−242, −50) mL"
same,"Coughing in guinea pig, formulation with alternative salts",in-vivo guinea pig model; formulation changed to use alternative salts,ineffective in influencing cough
same,Coughing in guinea pig,"in-vivo guinea pig model; in-vivo guinea pig model, salt form used in the study",trigger coughing
same,Adverse events leading to study discontinuation,[5],6 (14.3%) Patients (%)
same,Adverse events leading to study discontinuation: Cough,[5],5 (11.9%) Patients (%)
same,Adverse events: Abnormal product taste,[5],14 (33.3%) Patients (%)
same,Adverse events: COPD exacerbation,[5],4 (9.5%) Patients (%)
same,Adverse events: Chest discomfort,[5],9 (21.4%) Patients (%)
same,Adverse events: Dyspnoea,[5],9 (21.4%) Patients (%)
same,Adverse events: Headache,[5],5 (11.9%) Patients (%)
same,Adverse events: Increased sputum,[5],5 (11.9%) Patients (%)
same,CHF6523–placebo differences in the other safety evaluations,[5],no clinically relevant
same,Serious adverse events,[5],2 (4.8%) Patients (%)
same,Serious treatment-related adverse events,[5],0 Patients (%)
same,Severe adverse events,[5],11 (26.2%) Patients (%)
same,Severe adverse events: Cough,[5],7 (16.7%) Patients (%)
same,Treatment-related adverse events,[5],40 (95.2%) Patients (%)
same,Treatment-related adverse events: Chest discomfort,[5],9 (21.4%) Patients (%)
same,Treatment-related adverse events: Cough,[5],40 (95.2%) Patients (%)
same,Treatment-related adverse events: Dyspnoea,[5],9 (21.4%) Patients (%)
same,Treatment-related adverse events: Headache,[5],3 (7.1%) Patients (%)
same,Treatment-related adverse events: Increased sputum,[5],5 (11.9%) Patients (%)
same,Treatment-related adverse events: Product taste abnormal,[5],14 (33.3%) Patients (%)
